# Key:
# [1] = test system: hypoglossal (XII) nerve discharge, neonatal rat medullary slice preparation; assay: Integrated hypoglossal (XII) nerve recordings in the in vitro neonatal rat medullary slice preparation; settings: for ∫XII nerve discharge amplitude: longer-term (>2 hours) bath application; for long-lasting potentiation of ∫XII nerve amplitude: 1-12 hours after
# Procedure: (§1) Experiments were performed on medullary slice preparations from 0-4 day-old neonatal rats that retain functional respiratory networks. Details of the preparation have been previously described. See Funk et al. (1993) J Neurophysiol 70:1497-1515. Briefly, neonatal rats were anesthetized with isoflurane, decerebrated, and the neuraxis isolated by dissection in artificial cerebrospinal fluid (ACSF) [(in mM) 128 NaCl, 3.0 KCl, 1.5 CaCl2, 1.0 mgSO4, 21 NaHCO3, 0.5 Na2HPO4, and 30 D-glucose] equilibrated with 95% 02-5% CO2 at 27-28° C. The neuraxis was sectioned with a vibratome in the transverse plane starting from the rostral medulla to within 150 μm nucleus ambiguous (Smith, J. C. et al., (1991) Science 254(5032):726-729. A single, 700 μm thick transverse slice was then cut, transferred to a 1.5 ml recording chamber and held in place by stainless steel harp. The slice was continuously superfused (≧3 ml/min) by ACSF with extracellular K^+ concentration raised to 9 mM to maintain rhythmic output.
# Respiratory motor output was recorded from cut ends of XII nerve roots rectified, filtered and integrated. Peak amplitude was obtained from signals of XII nerve discharge. The activity in individual XII motoneurons was measured via whole-cell voltage-clamp techniques.
# Cyclothiazide, CX546, and aniracetam were introduced by bath application to determine the effects of cyclothiazide, CX546, and aniracetam on respiratory activity. Stable respiratory activity was recorded for at least 30 minutes preceding drug application. After removal of the drug, recordings continued for over 12 hours.
# obstructive sleep apnea = assay: Treatment of a patient having obstructive sleep apnea; type: in vivo; settings: about 0.1 to 100 mg/kg body weight
# Excerpt: A patient is diagnosed as having obstructive sleep apnea. This diagnosis is confirmed by the presence of obstructive sleep apnea symptoms, including daytime sleepiness, unintentional sleep episodes, unrefreshing sleep, fatigue, or insomnia; awakening with breath holding, gasping, or choking; reports by a bed partner of loud snoring, breathing interruptions, or both in the patient's sleep; sleep study monitoring that documents >5 episodes of hypopnea and apnea per hour. The patient is administered a pharmaceutical formulation of benzothiadiazide. Benzothiadiazide is administered to the patient orally or intravenously at a dosage of about 0.1 to 100 mg benzothiadiazide/kg body weight as determined by the attending physician. The patient is monitored for reduction or inhibition of obstructive sleep apnea and associated symptoms. […] Cyclothiazide is administered to the patient intravenously at a dosage of about 0.1 to 100 mg cyclothiazide/kg body weight as determined by the attending physician. The patient is monitored for reduction or inhibition of obstructive sleep apnea and associated symptoms. […] Aniracetam is administered to the patient intravenously at a dosage of about 0.1 to 100 mg aniracetam/kg body weight as determined by the attending physician. The patient is monitored for reduction or inhibition of obstructive sleep apnea and associated symptoms.
# snoring = assay: Treatment of a patient having snoring; type: in vivo; settings: about 0.1 to 100 mg/kg body weight
# Procedure: A patient is diagnosed as having snoring. This diagnosis is confirmed by the presence of snoring sounds made by the patient during sleep or conditions associated with snoring.
# (§2) The patient is administered a pharmaceutical formulation of an AMPA receptor modulator. The AMPA receptor modulator is administered to the patient intravenously or orally at a dosage of about 0.1 to 100 mg AMPA receptor modulator/kg body weight as determined by the attending physician. The patient is monitored for reduction or inhibition of snoring and associated symptoms.
# as §2, with “ampakine.” for “AMPA receptor modulator.”, “ampakine” for “AMPA receptor modulator”, “ampakine/kg” for “AMPA receptor modulator/kg”
# as §2, with “CX546. CX546” for “an AMPA receptor modulator. The AMPA receptor modulator”, “CX546/kg” for “AMPA receptor modulator/kg”
# as §2, with “aniracetam. Aniracetam” for “an AMPA receptor modulator. The AMPA receptor modulator”, “aniracetam/kg” for “AMPA receptor modulator/kg”
# as §2, with “benzothiadiazide. Benzothiadiazide” for “an AMPA receptor modulator. The AMPA receptor modulator”, “benzothiadiazide/kg” for “AMPA receptor modulator/kg”
# The patient is administered a pharmaceutical formulation of cyclothiazide. Cyclothiazide is administered to the patient intravenously at a dosage of about 0.1 to 100 mg cyclothiazide/kg body weight as determined by the attending physician. […]
# XII motoneurons = assay: Whole-cell voltage-clamp of XII motoneurons in the medullary slice; type: cell-based, rat; settings: 90 μM for 15 minutes
# Procedure: as §1
# XII motoneurons were selected according to a hierarchy of criteria. Selection criteria for respiratory motoneurons are described by Funk et al. (1993) J Neurophysiol 70:1497-1515. […]
# Respiratory motor output was recorded from cut ends of XII nerve roots rectified, filtered and integrated. […] The activity in individual XII motoneurons was measured via whole-cell voltage-clamp techniques.
# [2] = test system: genioglossus (GG) muscle activity in anesthetized freely breathing rats; assay: Genioglossus EMG and respiratory rate in anesthetized freely breathing rats; type: in vivo, Sprague-Dawley rats
# Procedure: Anesthetized freely breathing rats provide a live animal model for determining effects of AMPA receptor modulators on genioglossus (GG) muscle activity.
# Adult Sprague-Dawley rats (˜300 g) were anaesthetized with ketamine (100 mg kg^−1) and xylazine (10 mg kg^−1) injected intraperitoneally. 1-1.5 vol % isoflurane in O2 was inhaled during the experimental stage to provide for stable recordings and continued anesthesia. To measure GG electromyographic activity (EMG), stainless steel wire electrodes were sutured into the muscle. The raw GG EMG signal was rectified filtered and integrated.
# Respiratory frequency and tidal volume were measured via pressure transducer attached to the rostral end of a polyethylene cannula that was inserted into the trachea of the anesthetized rat. The animal was freely breathing without the use of any ventilator or other method of respiratory support. These methods were taken in part from those reported in Tan, W., et al. (2008) Nat. Neurosci. 11(5):538-40 and Janczewski, W. A. and Feldman, J. L. (2006) J. Physiol. 570(Pt 2):407-20, incorporated by reference in their entirety.
# [3] = short-duration (1 hour) application, 90 μM, FIG. 2
# [4] = injection into XII motor nucleus (1 μL, 25 mM), 30 minutes post-injection, FIG. 7
# [5] = local application to the IVth ventricle, FIG. 8A
# [6] = micropipette injection into hypoglossal (XII) motor nucleus, 8 minutes after, FIG. 6
compound,measurement,setting,value
COc1ccc(C(=O)N2CCCC2=O)cc1 [aniracetam],∫XII nerve discharge amplitude,"[1]; 700 μM, FIG. 5B",induces a persistent potentiation of ∫XII nerve discharge amplitude
same,symptoms of obstructive sleep apnea,obstructive sleep apnea,reduces the symptoms of obstructive sleep apnea
same,snoring,snoring,reduces snoring
NS(=O)(=O)c1cc2c(cc1Cl)NC(C1CC3C=CC1C3)NS2(=O)=O (centres unmarked) [cyclothiazide],XII motoneuron drive currents,"XII motoneurons; 1 hour post-treatment, FIG. 4A",potentiates endogenously generated XII motoneuron drive currents
same,XII motoneuron charge transfer and ∫XII nerve peak amplitude,"XII motoneurons; control vs 1 hour post-treatment, FIG. 4B",induces XII motoneuron charge transfer and increase of ∫XII nerve amplitude
same,effect on respiratory rate (frequency) in slice,"[1]; 1-hour bath application, 90 μM",minor effects on respiratory rate (frequency)
same,potentiation of hypoglossal (∫XII) nerve discharge amplitude,"[1]; 1-hour bath application, 90 μM, FIG. 1A",2 fold
same,dose-response of normalized ∫XII nerve amplitude,"[1]; 1 hour following a 1 hour application of 3, 9, 30, or 90 μM, FIG. 3",∫XII nerve amplitude increases as a function of cyclothiazide concentration
same,persistence of potentiation of ∫XII nerve discharge amplitude,"[1]; after 1-hour bath application, 90 μM, drug removed",> 12 h
same,long-lasting potentiation of ∫XII nerve amplitude,[1]; [3],causes long-lasting potentiation of ∫XII nerve amplitude
same,increase of ∫XII nerve output,"[1]; short-duration (1 hour) application, 90 μM, group data 1-12 hours after, FIG. 2",200-300%
same,symptoms of obstructive sleep apnea,obstructive sleep apnea,reduces the symptoms of obstructive sleep apnea
same,snoring,snoring,reduces snoring
same,average increase of ∫GG activity relative to control,[2]; [4],300%
same,peak increase of ∫GG activity relative to control,[2]; [4],600%
same,average increase of ∫GG activity compared to control,[2]; [5],50%
same,peak increase of ∫GG activity compared to control,[2]; [5],150%
same,respiratory rate,"[2]; local application to the IVth ventricle, FIG. 8B",without affecting respiratory rate
same,duration of elevation of ∫GG activity,"[2]; local application to the IVth ventricle, until the end of the experiment",~90 min
same,respiratory frequency,[2]; [6],does not affect respiratory frequency
same,∫GG activity,[2]; [6],induces an increase in ∫GG activity
O=C(c1ccc2c(c1)OCCO2)N1CCCCC1 [CX546],effect on respiratory rate (frequency) in slice,"[1]; 1-hour bath application, 90 μM",increase in ∫XII nerve discharge and respiration rate that subsides over time with drug removal
same,effect on ∫XII nerve discharge,"[1]; 1-hour bath application, 90 μM, FIG. 1B",induces an increase in ∫XII nerve discharge and respiration rate that subsides over time with drug removal
same,∫XII nerve discharge amplitude,"[1]; 20 μM, FIG. 5A",induces a persistent potentiation of ∫XII nerve discharge amplitude
same,long-lasting potentiation of ∫XII nerve amplitude,[1]; [3],but not CX546 causes long-lasting potentiation
same,snoring,snoring,reduces snoring
same,average increase of ∫GG activity compared to control,"[2]; intravenous injection into femoral vein, 130 μg/kg, FIG. 9A",15%
same,respiratory rate,"[2]; intravenous injection, 130 μg/kg, FIG. 9B",no long term changes in respiratory rate
same,duration genioglossus muscle activity remained elevated,"[2]; intravenous injection, 130 μg/kg, no diminution of amplitude",more than 2 hours
